Among the data in the RepoRT retention time repository are LC retention time values, retold here.

SMILES strings stand for the structures.

The data set in a line: A: acetonitrile + 0.1% formic acid + 10 mM ammonium formate; B: 5% water + 95% acetonitrile + 0.1% formic acid + 10 mM ammonium formate; gradient (min/%B) 0/10 2/10 22/100 27/100 27.1/10. As to conditions: stereoisomer not certain.

As for `OC(CCN1CCCCC1)(c1ccccc1)C1CCCCC1` (configuration not stated) [Benzhexol], the LC retention time amounted to 0.91 min. On to `Nc1ccc(C(=O)O)cc1` [p-Aminobenzoic acid], for which the LC retention time is 0.555 min. For `CC(=O)c1c(O)cc(C)oc1=O` [DehydroacetIc acid], the LC retention time turned out to be 0.444 min.

Consider `O=C(O)Cc1cnc[nH]1` [Imidazole-4(5)-acetic Acid], for which the LC retention time stood at 6.1 min. Under `O=P(O)(O)OCC1OC(O)C(O)C(O)C1O` [D-Glucose 6-phosphate] stands 7.76 min; under `NCCc1ccc(O)cc1` [Tyramine], 3.19 min. In the case of `COC(=O)C1=C(C)NC(C)=C(C(=O)OC)C1c1ccccc1[N+](=O)[O-]` [Nifedipine], the LC retention time worked out at 0.418 min. Consider `COc1ccc(Cl)cc1C(=O)NCCc1ccc(S(=O)(=O)NC(=O)NC2CCCCC2)cc1` [Glibenclamide], for which the LC retention time is 0.446 min. Consider `CC(C)n1c(C=CC(O)CC(O)CC(=O)O)c(-c2ccc(F)cc2)c2ccccc21` (configuration not stated) [Fluvastatin], for which the LC retention time amounted to 0.561 min. For `OCCNCCO` [Diethanolamine], the LC retention time was 5.23 min. The same measure for `O=C(O)c1ccc(=O)[nH]c1` [6-Hydroxynicotinic acid]: 5.17 min; for `NCC(=O)CCC(=O)O` [5-Aminolevulinic acid]: 5.89 min; for `CC12C=CC(=O)C=C1CCC1C2C(O)CC2(C)C1CCC2(O)C(=O)CO` (configuration not stated) [Hydroretrocortine]: 0.485 min. Regarding `CC1OC(OC2C(CO)OC(OC3C(CO)OC(O)C(O)C3O)C(O)C2O)C(O)C(O)C1NC1C=C(CO)C(O)C(O)C1O` (configuration not stated) [Acarbose], the LC retention time was found to be 8.07 min. On to `COC(=O)C1=CCCN(C)C1` [Arecoline], for which the LC retention time is 2.06 min. Turning to `NC(N)=NC(=O)c1nc(Cl)c(N)nc1N` [Amiloride], the LC retention time is 2.91 min. Under `CCOC(=O)c1ccc(N)cc1` [Ethyl 4-aminobenzoate] stands 0.422 min; under `NC(=O)C1=CN(C2OC(COP(=O)(O)OP(=O)(O)OCC3OC(n4cnc5c(N)ncnc54)C(O)C3O)C(O)C2O)C=CC1` (configuration not stated) [NADH], 7.5 min. Regarding `COC(=O)CCCC(=O)O` [Monomethyl glutarate], the LC retention time is 0.562 min. Turning to `COC(=O)C1=C(C)NC(C)=C(C(=O)OCCN(C)Cc2ccccc2)C1c1cccc([N+](=O)[O-])c1` (configuration not stated) [Nicardipine], the LC retention time came to 0.714 min. Under `Cc1nc2n(c(=O)c1CCN1CCC(c3noc4cc(F)ccc34)CC1)CCCC2` [Risperidone] stands 2.42 min; under `O=c1[nH]c(=O)c2ncn(C3OC(COP(=O)(O)O)C(O)C3O)c2[nH]1` (configuration not stated) [Xanthosine 5'-monophosphate], 7.42 min; under `CC(C=CC=C(C)C=CC1=C(C)CCCC1(C)C)=CC=O` [All trans-Retinal], 0.407 min. Under `CC1=CC(=O)C(C)O1` (configuration not stated) [2,5-Dimethyl-2,3-dihydrofuran-3-one] stands 0.451 min; under `NC(=O)c1ccc[n+](C2OC(COP(=O)(O)OP(=O)([O-])OCC3OC(n4cnc5c(N)ncnc54)C(OP(=O)(O)O)C3O)C(O)C2O)c1` (configuration not stated) [NADP], 8.7 min. Under `NC(N)=Nc1nc(CSCCC(N)=NS(N)(=O)=O)cs1` [Famotidine] stands 2.9 min; under `Nc1ccn(C2OC(COP(=O)(O)O)C(O)C2O)c(=O)n1` (configuration not stated) [Cytidine 5'-monophosphate], 7.4 min.
